The source of these data is US8071300B2, “Drug-phosphorylating enzyme” (Daiichi Sankyo Company, Limited, priority 2006, dated 2011).

Experiment [1] addresses T1, human FN3K (Homo sapiens, UniProt Q9H479).
T1 construct: expressed in transfected cells; host or cells: HEK293, transient, hFN3K/pcDNA3.2-DEST; cytoplasmic fraction (lysate supernatant) used
T1 sequence (Q9H479 1-309): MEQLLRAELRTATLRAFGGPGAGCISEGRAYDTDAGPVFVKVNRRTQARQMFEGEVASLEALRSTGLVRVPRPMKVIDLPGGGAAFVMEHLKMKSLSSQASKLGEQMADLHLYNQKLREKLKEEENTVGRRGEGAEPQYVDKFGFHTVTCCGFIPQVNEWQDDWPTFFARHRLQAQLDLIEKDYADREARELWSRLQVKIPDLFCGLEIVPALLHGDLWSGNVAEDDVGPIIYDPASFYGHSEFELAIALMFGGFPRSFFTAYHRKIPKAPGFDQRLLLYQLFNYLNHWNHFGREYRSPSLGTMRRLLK
Description: DMF inhibition of compound 1 phosphorylating activity, hydrophobic interaction column active fraction (Example 6). It counts as biochemical. Conditions: active fraction of the hydrophobic interaction column (second purification stage, Example 4). As to the method: (§1) When 1-deoxy-1-morpholinofructose (DMF; Sigma) was added to the reaction solution, it was added thereto to a final concentration of 1 mM. […] Thereafter, 150 μL of methanol was added to the reaction solution, and the mixture was then filtrated through a filter with a pore diameter of 0.45 μm, so as to terminate the reaction and remove the protein. 10 μL of the filtrate was subjected to a reverse phase chromatography column (TSK-gel ODS-100S; 4.6 mm (diameter)×150 mm (length); Tosoh Corp). Isocratic elution was carried out using 40% acetonitrile comprising 0.1% trifluoroacetic acid at a flow rate of 1 mL/min at a column temperature of 40° C. […] The amount of phosphoric ester of compound 1 generated was measured based on a peak area.

The subject of experiment [2] is human FN3KRP. Kind of experiment: Compound 1 phosphorylating activity of human erythrocyte fractions in presence and absence of 1 mM DMF (FN3KRP purification, Example 6). It counts as biochemical. As to the method:
as §1
(§2) For purification, enzyme activity was always measured in the presence and absence of 1 mM DMF, so that the purification was carried out using activity that is not inhibited by DMF as an indicator.
(§3) The ammonium sulfate precipitate obtained in Example 4 was fractionated by each of an anion exchange column (HiPrep Q 16/10 XL, GE Healthcare Biosciences), a dye-binding affinity column (HiTrap Blue HP 1 mL), a cation exchange column (Mono S PC 1.6/5), and a gel filtration column (Superdex 75 PC 3.2/30).

For experiment [3], the target named is T2, human FN3KRP (Homo sapiens, UniProt Q9HA64).
T2 sequence (Q9HA64 1-309): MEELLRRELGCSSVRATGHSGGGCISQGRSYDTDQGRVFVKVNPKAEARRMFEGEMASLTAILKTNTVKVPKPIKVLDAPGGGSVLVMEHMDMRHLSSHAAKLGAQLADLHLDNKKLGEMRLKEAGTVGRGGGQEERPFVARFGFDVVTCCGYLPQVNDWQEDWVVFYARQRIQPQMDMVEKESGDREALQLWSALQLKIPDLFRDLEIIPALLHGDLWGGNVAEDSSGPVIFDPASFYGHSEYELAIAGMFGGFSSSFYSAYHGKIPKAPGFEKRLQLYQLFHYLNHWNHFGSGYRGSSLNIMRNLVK
The description is as above. It counts as biochemical. As to the method: as §1, §2, §3

Experiment [4] has as its target T2, human FN3KRP. Kind of experiment: Ability of human FN3KRP cytoplasmic fraction to phosphorylate FTY720 and sphingosine (Example 12). It counts as biochemical. Set-up: expressed in transfected cells; host or cells: HEK293, transient, hFN3KRP/pcDNA3.1(+)neo; cytoplasmic fraction (lysate supernatant) used. As to conditions: 10 μM substrate, 5 mM ATP, approximately 91 μg cytoplasmic fraction, 37° C., 3 hours. The method, then: (§4) Eighteen 1.5-mL polypropylene tubes were prepared. Components were added to each tube to the following final concentrations, with the total amount set at 250 μL, followed by leaving the obtained solution at rest on ice (100 mM HEPES (pH 7.4), 5 mM magnesium chloride, 5 mM ATP, 1 mM dithiothreitol, 0.5% CHAPS, 10 μM FTY720 or sphingosine, each cytoplasmic fraction obtained in Example 10 in an amount of approximately 91 μg). The obtained mixture was incubated in a hot-water bath at 37° C. for 3 hours, and was then transferred onto ice. 0.5 mL methanol was added to each tube, and mixed with the reaction product. Thereafter, the mixture was preserved at −20° C. until LC/MS/MS measurement was carried out.
(§5) The amount of FTY720 phosphoric ester or SIP generated was analyzed using the following LC/MS/MS system.
(§6) LC system: • HPLC apparatus name: Agilent 1100 series (Agilent Technologies) • Autosampler name: HTC PAL (CTC Analytics)
(§7) MS/MS system: • Apparatus name: API4000 (Applied Biosystems/MDS Sciex)

Experiment [5] addresses T1, human FN3K. Kind of experiment: Ability of human FN3K cytoplasmic fraction to phosphorylate FTY720 and sphingosine (Example 12). As to conditions: 10 μM substrate, 5 mM ATP, approximately 91 μg cytoplasmic fraction, 37° C., 3 hours. The class given is biochemical. The method, then: as §4, §5, §6, §7
Experiment [6] concerns the target T1, human FN3K. Description: Phosphorylation of compound 1 and analogs using human FN3K expression cytoplasmic fraction (Example 14). As to conditions: 100 μM substrate, 0.3 mg/mL human FN3K expression cytoplasmic fraction, 5 mM ATP, 37° C., 3 hours. The class given is biochemical. As to the method: (§8) HEK293 cells were inoculated to three 75-cm^2 culture flasks, and they were then cultured until they became 80% confluent. Using a lipofectamine plus reagent (Invitrogen), gene introduction was carried out without plasmid DNA, with 4 μg of hFN3KRP/pcDNA3.1(+)neo, and with 4 μg of hFN3K/pcDNA3.2-DEST, for each of the three flasks. Thereafter, the cells were cultured for approximately 27 hours. Thereafter, the cells were washed with PBS, and 2.5 mL of a cell lysate (100 mM HEPES (pH 7.4), 80% (v/v) CelLytic-M (Sigma), 1 mM dithiothreitol, a single protease inhibitor cocktail for 50 mL (Complete EDTA-free, Roche)) was then added to the cells. Thereafter, the cells were intensively shaken, until all of them were removed. The thus removed cells and the supernatant were recovered, and they were then ultracentrifuged at 20,000×g at 4° C. for 15 minutes. Thereafter, the supernatant was recovered, and aliquots each of 200 μL were frozen in liquid nitrogen. They were preserved at −80° C. until used. […]
(§9) The efficiency of phosphorylating each compound was calculated using the peak areas of phosphoric ester and unreacted substrate, as shown in the following formula. […]
After completion of the reaction, 200 μL of methanol was added to the reaction solution, and the mixture was then stirred. […] The efficiency of phosphorylating each analog was calculated using the formula as shown in Example 13.

Experiment [7] deals with T2, human FN3KRP. Description: Phosphorylation of compound 1 and analogs using human FN3KRP expression cytoplasmic fraction (Example 13). It counts as biochemical. Set-up: expressed in transfected cells; host or cells: HEK293, transient, hFN3KRP/pcDNA3.1(+)neo; cytoplasmic fraction (lysate supernatant) used. As to conditions: 100 μM substrate, 0.328 mg/mL human FN3KRP expression cytoplasmic fraction, 5 mM ATP, 37° C., 3 hours. As to the method: as §8, with “used. In addition, a portion of the supernatant was subjected to measurement of protein concentration.” for “used.”
as §9

In a further experiment the test system is rat erythrocytes. Kind of experiment: Phosphorylation of compound 1 and analogs using rat erythrocytes (Example 15). As to conditions: 100 μg/mL substrate, 37° C., 3 hours. It counts as cell-based, Wistar-Imamichi rats. The method, then:
The efficiency of phosphorylating each compound was calculated using the peak areas of phosphoric ester and unreacted substrate, as shown in the following formula. Phosphorylation efficiency (%)=peak area of phosphoric ester/(peak area of phosphoric ester+peak area of unreacted substrate)×100
Erythrocytes were prepared from Wistar-Imamichi rats (purchased from Institute for Animal Reproduction) in the same manner as in Example 1.
Reaction solution: Rat erythrocytes
Reaction substrate: 100 μg/mL
Reaction condition: 37° C., 3 hours
After completion of the reaction, 1 mL of methanol was added to the reaction solution, and the mixture was then stirred. The mixed solution was centrifuged (16,000×g, 5 minutes, 4° C.). The supernatant was centrifuged again (16,000×g, 10 minutes, 4° C.), and 20 μL of a newly obtained supernatant was then subjected to HPLC, so that analysis was carried out under the conditions described in Example 13. The efficiency of phosphorylating each analog was calculated using the formula as shown in Example 13.

pIC50: −log10 of the molar value.

Usually pIC50 stands for the IC50 on a negative log10 scale, so that one unit is a factor of ten. A word on the remaining activity: it is the signal under treatment as a percentage of the control signal. Regarding `O=C(CN1CCOCC1)[C@@H](O)[C@H](O)[C@H](O)CO` [DMF, 1-deoxy-1-morpholinofructose], the pIC50 against human FN3K [1] was approximately 6.00. Also, the Remaining activity in the experiment on human FN3KRP [2] (1 mM DMF; 1) ammonium sulfate precipitation) is listed as 89%; in the experiment with human FN3KRP [2] (1 mM DMF, soluble fraction) it was 81%. In the experiment on human FN3KRP [2] (soluble fraction and re-solubilized ammonium sulfate precipitate), the “Inhibition of compound 1 phosphorylating activity by DMF” value was “hardly observed”. Moreover, the remaining activity at 1000 µM at human FN3KRP [3] (1 mM DMF; 2) anion exchange column) came to 98%; at human FN3KRP [3] (1 mM DMF; 3) dye-binding affinity column), 110%; at human FN3KRP [3] (1 mM DMF; 4) cation exchange column) it was 98%. Besides, the “Inhibition of enzyme activity by DMF” value at human FN3KRP [3] (enzyme activity after the second purification step) was “not inhibited”.

As to `CCCCCCCCc1ccc(CCC(N)(CO)CO)cc1.Cl` [FTY720, 2-Amino-2-[2-(4-octylphenyl)ethyl]propane-1,3-diol hydrochloride], the “Phosphorylation of substrate (LC/MS/MS)” value on human FN3KRP [4] and on human FN3K [5] was “slightly phosphorylate” in each case.

On to `NC(CO)(CO)CCCc1ccc(Sc2cccc(OCc3ccccc3)c2)cc1Cl` [ROX-2127, 2-amino-2-[4-(3-benzyloxyphenylthio)-2-chlorophenyl]propyl-1,3-propanediol], for which the Phosphorylation efficiency came to 0.0% at human FN3K [6], 37.5% on human FN3KRP [7] and 31.7% with rat erythrocytes.

Turning to `CCCCCCCCCCCCC/C=C/[C@@H](O)[C@@H](N)CO` [sphingosine], the “Phosphorylation of substrate (LC/MS/MS)” value at human FN3KRP [4] and on human FN3K [5] was “do not have ability to phosphorylate” each time.
